Laboratory results: patent US8865762B2, “Method for the treatment of bone diseases comprising colforsin daropate” (Korea Research Institute of Bioscience and Biotechnology, priority 2009, dated 2014)
“Also recorded” adds a separate entry of the source.

What was measured:
[1] = tested on: murine monocytic cell line, RAW264.7; assay: Cytotoxicity test of monocytes (CCK-8 kit); type: cell-based; settings: RAW264.7, 0, 10, 20 and 30 μM, after 1, 2 and 4 days, FIG. 1, monohydrochloride
Description: The murine monocytic cell line, RAW264.7 (ATTC TIB-71) was cultured in a DMEM medium supplemented with 10% FBS, and the medium was replaced every other day. The cell culture reagents were purchased from Hyclone. When RAW264.7 cells reached 70% confluence, the collected cells were aliquotted into a 96-well plate at a density of 1×10^3/well, and cultured for 24 hours. Subsequently, the cells were treated with colforsin daropate at various concentrations (0, 10, 20 and 30 μM), and cultured for 96 hours. After 1, 2, and 4 days in culture, a cytotoxicity test was performed using the cells in each well and a CCK-8 kit (Dojindo, Japan).

[2] = tested on: ovariectomy-induced bone loss; assay: Bone density-improving effect in ovariectomy-induced osteoporosis model (micro-CT); type: in vivo, DDY female mice; settings: ovariectomized mice, p.o. 5 mg/kg or 10 mg/kg once a day for 4 weeks, FIG. 4, monohydrochloride
Description: Thus, most studies are performed in animals. Ovariectomized mice are frequently used as a model for postmenopausal osteoporosis. Ovariectomized mice and early postmenopausal women share many similar characteristics, and thus ovariectomized mice have been commonly used in the studies of osteoporosis therapeutic agents. The present inventors performed ovariectomies on 5-week-old DDY female mice. The mice were anesthetized by intraperitoneal injection of 25 mg/kg of pentobarbital sodium (JW Pharmaceutical Corp). The abdomen of each mouse was shaved, and the surgical site was cleansed with antiseptics to perform ovariectomy. A 1.5 cm abdominal incision was made through the skin, muscle, and peritoneum to expose the ovary. The ovary was dissected out, and the peritoneum, muscle, and skin were sutured. As a control group, a sham ovariectomy was performed to the peritoneum identically, but the ovaries remained intact. The mouse models having ovariectomy-induced bone loss were orally administered (p.o.) with the colforsin compound at the concentrations of 5 mg/kg or 10 mg/kg once a day for 4 weeks. The effects were examined using a high resolution in-vivo micro-CT system (explore Locus scanner, GE Health Care, USA) to analyze the bone density.

[3] = tested on: ALP activity in murine osteoblastic cell, MC3T3-E1 subclone 4; assay: Alkaline phosphatase (ALP) activity of osteoblast, MC3T3-E1; type: cell-based; parameters: osteoblast differentiation-related ALP activity compared with the control compound purmorphamine: dose or concentration left out as unconfirmed
Description: (§1) In order to examine the effect of colforsin daropate on the activity of ALP, of which activity and expression are known to be increased at an early stage of osteoblast differentiation, the following experiment was performed. A murine osteoblastic cell, MC3T3-E1 subclone 4 (ATCC CRL-2593) was treated with colforsin daropate. After 8 days, cells were lysed using a lysis buffer (10 mM Tris-HCl, pH 7.5, 0.5 mM MgCl2, 0.1% Triton X-100) at room temperature for 30 minutes, and centrifuged at 12,000 rpm and 4° C. for 20 minutes. Next, […] in the obtained supernatant using a BCA kit (Bio-Rad), and its activity was measured using a LabAssay ALP kit (Wako, Japan). In this regard, the measured activity was presented as a % of the control, and a significance test was performed by t-test (colforsin daropate treatment, p<0.05; purmorphamine treatment as control, p<0.05). The same experiment was performed using multipotent C3H10T1/2 cells (cells can differentiate toward various lineages, including osteocytes).

[4] = tested on: TRAP activity induced by RANKL in the monocytic cell line RAW264.7; assay: Osteoclast differentiation, TRAP staining and activity assay; type: cell-based, murine
Description: At this time, α-MEM containing 100 ng/ml RANKL (R&D systems) and 10% FBS was used as a cell suspension medium. After 24 hours, the cells were treated with colforsin daropate at various concentrations (0, 0.2, 1, 2, 10, and 20 μM). After 3 days, TRAP staining was performed using a leukocyte acid phosphatase kit (Sigma). The stained cells were first fixed in 10% formalin for 10 minutes, and then dehydrated in 95% ethanol, and dried well at room temperature. Subsequently, 100 μl of citrate buffer (50 mM, pH 4.6) containing 10 mM sodium tartrate and 5 mM p-nitrophenylphosphate was added to each well, and reacted for 20 to 30 minutes. Thereafter, the enzyme reaction mixtures were transferred into new 96-well plates, and the reaction was terminated using 100 μl of 0.1 N NaOH. Absorbance was measured at 405 nm. TRAP activity was presented as a % of control, and a significance test was performed by t-test at the same time (purmorphamine treatment p<0.01; colforsin daropate treatment p<0.001). Purmorphamine was used as a control compound.

[5] = tested on: murine osteoblastic cell, MC3T3-E1 subclone 4; assay: Cell proliferation of osteoblastic cells; type: cell-based
[6] = tested on: ALP activity in multipotent C3H10T1/2 cells; assay: Alkaline phosphatase (ALP) activity, C3H10T1/2; type: cell-based; settings: FIG. 3B
Description: as §1, with “A” for “In order to examine the effect of colforsin daropate on the activity of ALP, of which activity and expression are known to be increased at an early stage of osteoblast differentiation, the following experiment was performed. A”

C=C[C@@]1(C)CC(=O)[C@]2(O)[C@@]3(C)[C@@H](O)CCC(C)(C)[C@@H]3[C@H](OC(=O)CCN(C)C)[C@H](OC(C)=O)[C@@]2(C)O1.Cl [colforsin daropate]
cytotoxicity [1]: no cytotoxicity; also recorded: without cytotoxicity
bone density / ovariectomy-induced bone loss [2]: remarkably increased; also recorded: remarkably improved
ALP activity ([3]; MC3T3-E1 subclone 4, after 8 days, % of control, FIG. 3A): remarkably increased
osteoblast differentiation-related ALP activity compared with the control compound purmorphamine ([3]; versus purmorphamine): more increased
TRAP activity induced by RANKL ([4]; RAW264.7, 100 ng/ml RANKL, 0.2-20 μM, 3 days, % of control, FIG. 2): inhibited TRAP activity induced by RANKL in the monocytic cell line RAW264.7 in a concentration-dependent manner
osteoclast differentiation ([4]; RAW264.7 with RANKL, FIGS. 1 and 2): efficacy of inhibiting osteoclast differentiation
cell proliferation [5]: did not affect cell proliferation
ALP activity [6]: also remarkably increased
